# Bridge positions count the residues as written; N and C are the ends. Ends that are not written are not given here. Peptide text beside a SMILES is read from it.
# Key:
# various tumor cells = settings: four leucine residues of MTD replaced by alanine; cited from earlier work
# From the text: We reported a 10-residue long, pro-necrotic peptide derived from the mitochondrial targeting domain (MTD) located in the C-terminal region of Noxa, a BH-3 only protein of Bcl-2 family. The MTD region of Noxa is responsible not only for mitochondrial targeting of Noxa but also for mitochondrial fragmentation induced by Noxa. Two […]) in the region of MTD play a key role in mitochondrial fragmentation induced by Noxa. […] Therefore, we determined whether TU17:MTD could discriminate tumor and normal cells in vitro.
# BALB/c mice = experiment: Toxicity and movement activity after i.v. injection; settings: for Movement Activities: BALB/c (around 20 gm) mice, i.v. single dose 75 μl of 1 mM, within 30 minutes; for toxicity by mouse movements: BALB/c mice, i.v. single dose 75 μl of 1 mM per mouse, movements within 30 minutes, observed up to one week
# Description: To design a MTD peptide anti-cancer drug, the MTD peptide was fused to various known tumor-homing motifs through its N-terminal or C-terminal region, and a linker was introduced between these two motifs to impart flexibility and minimize steric hindrance (Figure 1A, Supplementary Table S1). The MTD peptides fused with tumor-homing motifs (hereafter designated TU:MTDs) were synthesized as linear or cyclic entities using L-amino acids (Supplementary Table S1), and were evaluated for their killing activity using CT26 cells in vitro (Supplementary Figure S1). […] Thus, BALB/c mouse movements were also evaluated within 30 minutes of the intravenous injection of a single dose of 75 μl of 1 mM TU:MTDs per mouse. […] We also searched for a TU:MTD with a potent in vivo effect by observing tumor volumes in three BALB/c mice bearing CT26 adenocarcinoma that were injected with 100 μl of 1 mM TU:MTDs per day for 2 or 3 consecutive days (Figure 1B). […] The tumor-homing motif of TU17:MTD has a “RPARPAR” sequence containing the C-end rule (CendR) element that has known to bind to neuropilin-1 (NRP-1), although the “RPARPAR” sequence is located at the N-terminus of the MTD rather than at the C-terminus. […]
# 1 mM) were i.v. injected into BALB/c (around 20 gm) mice at a single dose. “Slow” means not moving around in the cage.
# “Normal” means normally moving around in the cage. “Toxic” means necrosis in tail vein within 2 ~ 3 days after injection.
# (§1) Abbreviation: NR; no regression, ND; not determined. […]
# CT26 cells = experiment: XTT cell viability / killing activity in CT26 cells; assay type: cell-based; settings: CT26 cells, TU:MTDs 0 ~ 20 μM, 30 minutes, XTT
# Description: Figure 1 Identification of TU17:MTD as a tumor targeting peptide (A) Schematic diagram of the fusion peptides consisting of the tumor-homing motif, linker, and mitochondrial targeting domain (MTD). (B) Tumors were generated over 2 weeks after s.c. injection of CT26 cells into the backs of BALB/c mice. When tumor volumes reached palpable size, the indicated TU:MTDs (100 μl of 1 mM TU:MTDs) or PBS were administrated i.v. twice or three times. […] Arrows indicate the points of peptide injection. P values < 0.02 (control group vs TU17:MTD at day 5, 6, 7, 8, and 9) (C) HCT116, HeLa, A549, MCF-7, PC3, and BJAB cells were treated with TU17:MTD (0 ~ 20 μM) for 30 minutes, and cell viability was monitored using XTT assays. *P < 0.05 (D) Primary splenocytes and macrophages were treated with TU17:MTD (0 ~ 20 μM) for 30 minutes, and cell viability was monitored by XTT assay. *P < 0.05 (E) CT26 cells were treated with R8:MTD, TU17:MTD, TU17-2:MTD or TU17:MTD^4A (0 ~ 40 μM) for 4 hours, and cell viability was monitored by XTT assay. Results in C to E are expressed as means ± SD (triplicates), and are representative of at least two independent experiments. P values are for experimental groups versus controls and were calculated using Dunnett's t-test. *P < 0.05.
# Figure 5 Anti-NRP-1 antibody blocks TU17:MTD-induced necrosis (A) CT26 cells (2 × 10^4 cells/cm^2) were treated with TU17:MTD-FAM (500 nM) peptide or TU17^mut:MTD (500 nM) peptide. […] The viability was measured by using the XTT assay. *P < 0.05, **P < 0.01. […] The percentage of FAM-positive cells (%) were determined (n = over 200 cells). *P < 0.05, ***P < 0.001.
# Cells were cultured in 96 well plates (2 × 10^5) overnight and treated with TU:MTDs. Cell viabilities were assessed using a XTT-based colorimetric assay kit, according to the manufacturer's instructions. […]
# Supplementary FigureS1: Killing activity of TU:MTDs in CT26 cells. CT26 cells were treated with TU:MTDs (0 ~ 20 μM) for 30 minutes, and cell viability was monitored using XTT assays. […]
# Serum AST and ALT assays = assay type: in vivo, mice
# Description: To assay the activities of ALT and AST, mouse serum was prepared by centrifuging blood at 2500 × g for 15 minutes at 4°C. Enzyme activities were determined, according to the manufacturer's instructions. […]
# the first injection of the peptides. […]
# necrosis in tail vein upon injection.
# “Slow” means not moving around in the cage.
# “Normal” means normally moving around in the cage.
# as §1
# aminotransferase) in mice treated with TU17:MTD
# Treatment Serum aminotransferase (karman units/ml)
# White blood Hemoglobin Platelets Neutrophils Lymphocyts Monocytes
# Treatments cells (g/dl) (×103 cell/μl) (%) (%) (%)
# [1] = CCl4-treated mice, chemically-induced liver damage model
Molecule,Movement Activities (BALB/c mice),toxicity by mouse movements (BALB/c mice),other results
KLLNLISKLF [MTD],,,killing activity and mitochondrial targeting activity (various tumor cells): abolishes the killing activity and mitochondrial targeting activity
CGKRKGGKLLNLISKLF [TU19:MTD],Normal,no apparent toxicities,
WDLAWMFRLPVGKLLNLISKLF [TU5:MTD],Normal,no apparent toxicities,
KLLNLISKLFGGCRGDK [TU22:MTD],Normal,no apparent toxicities,
KLLNLISKLFGGRPARPAR [TU18:MTD],Slow,toxic,
CC[C@H](C)[C@H](NC(=O)[C@H](CC(C)C)NC(=O)[C@H](CC(N)=O)NC(=O)[C@H](CC(C)C)NC(=O)[C@H](CC(C)C)NC(=O)[C@H](CCCCN)NC(=O)[C@H](CS)NC(=O)[C@H](CC(=O)O)NC(=O)[C@@H]1CCCN1C(=O)CNC(=O)[C@H](CCCCN)NC(=O)[C@H](CC(=O)O)NC(=O)CNC(=O)[C@H](CCCNC(=N)N)NC(=O)[C@@H](N)CS)C(=O)N[C@@H](CO)C(=O)N[C@@H](CCCCN)C(=O)N[C@@H](CC(C)C)C(=O)N[C@@H](Cc1ccccc1)C(=O)O [TU9:MTD] (H-CRGDKGPDCKLLNLISKLF-OH),Normal,no apparent toxicities,
CRGDKGGKLLNLISKLF [TU21:MTD],Slow,toxic,
RLLRLLRLLRGGKLLNLISKLF [TU15:MTD],Slow,toxic,
KLLNLISKLFGGRLLRLLRLLR [TU16:MTD],Normal,no apparent toxicities,
CC[C@H](C)[C@H](NC(=O)[C@H](CC(C)C)NC(=O)[C@H](CC(N)=O)NC(=O)[C@H](CC(C)C)NC(=O)[C@H](CC(C)C)NC(=O)[C@@H](N)CCCCN)C(=O)N[C@@H](CO)C(=O)N[C@@H](CCCCN)C(=O)N[C@@H](CC(C)C)C(=O)N[C@@H](Cc1ccccc1)C(=O)N[C@@H](CS)C(=O)NCC(=O)N[C@@H](CCCNC(=N)N)C(=O)N[C@@H](CC(=O)O)C(=O)N[C@@H](CCCCN)C(=O)NCC(=O)N1CCC[C@H]1C(=O)N[C@@H](CC(=O)O)C(=O)N[C@@H](CS)C(=O)O [TU7:MTD] (H-KLLNLISKLFCGRDKGPDC-OH),,no apparent toxicities,
CC[C@H](C)[C@H](NC(=O)[C@H](CC(C)C)NC(=O)[C@H](CC(N)=O)NC(=O)[C@H](CC(C)C)NC(=O)[C@H](CC(C)C)NC(=O)[C@H](CCCCN)NC(=O)[C@H](CS)NC(=O)[C@H](CC(=O)O)NC(=O)[C@@H]1CCCN1C(=O)CNC(=O)[C@H](CCCCN)NC(=O)[C@H](CC(=O)O)NC(=O)[C@H](CCCNC(=N)N)NC(=O)CNC(=O)[C@@H](N)CS)C(=O)N[C@@H](CO)C(=O)N[C@@H](CCCCN)C(=O)N[C@@H](CC(C)C)C(=O)N[C@@H](Cc1ccccc1)C(=O)O [TU6:MTD] (H-CGRDKGPDCKLLNLISKLF-OH),Normal,no apparent toxicities,
WIFPWIQLKLLNLISKLF [TU4:MTD],Slow,toxic,
CC[C@H](C)[C@H](NC(=O)[C@H](CC(C)C)NC(=O)[C@H](CC(N)=O)NC(=O)[C@H](CC(C)C)NC(=O)[C@H](CC(C)C)NC(=O)[C@@H](N)CCCCN)C(=O)N[C@@H](CO)C(=O)N[C@@H](CCCCN)C(=O)N[C@@H](CC(C)C)C(=O)N[C@@H](Cc1ccccc1)C(=O)N[C@@H](CS)C(=O)NCC(=O)N[C@@H](CCCNC(=N)N)C(=O)N[C@@H](CC(=O)O)C(=O)N[C@@H](CCCCN)C(=O)N[C@@H](CCCNC(=N)N)C(=O)N[C@@H](CC(C)C)C(=O)N[C@@H](Cc1ccc(O)cc1)C(=O)N[C@@H](CC(=O)O)C(=O)N[C@@H](CS)C(=O)O [TU8:MTD] (H-KLLNLISKLFCGRDKRLYDC-OH),Dead,highly toxic,cytotoxicity to CT26 cells in vitro (CT26 cells): not cytotoxic
ClC(Cl)(Cl)Cl [CCl4],,,Serum aminotransferase ALT (Serum AST and ALT assays; [1]): 558.8 ± 7.2 karman units/ml; Serum aminotransferase AST (Serum AST and ALT assays; [1]): 42.8 ± 3.7 karman units/ml; serum levels of AST and ALT (Serum AST and ALT assays; mice): substantially higher
CC[C@H](C)[C@H](NC(=O)[C@H](CC(C)C)NC(=O)[C@H](CC(N)=O)NC(=O)[C@H](CC(C)C)NC(=O)[C@H](CC(C)C)NC(=O)[C@H](CCCCN)NC(=O)CNC(=O)CNC(=O)[C@H](CS)NC(=O)CNC(=O)[C@H](CCCNC(=N)N)NC(=O)[C@@H](NC(=O)[C@H](CCCNC(=N)N)NC(=O)[C@H](CCCCN)NC(=O)[C@H](CC(N)=O)NC(=O)CNC(=O)[C@@H](N)CS)[C@@H](C)O)C(=O)N[C@@H](CO)C(=O)N[C@@H](CCCCN)C(=O)N[C@@H](CC(C)C)C(=O)N[C@@H](Cc1ccccc1)C(=O)O [TU3:MTD] (H-CGNKRTRGCGGKLLNLISKLF-OH),Normal,no apparent toxicities,
KLLNLISKLFGGCGKRK [TU20:MTD],Normal,no apparent toxicities,
CC[C@H](C)[C@H](NC(=O)[C@H](CC(C)C)NC(=O)[C@H](CC(N)=O)NC(=O)[C@H](CC(C)C)NC(=O)[C@H](CC(C)C)NC(=O)[C@H](CCCCN)NC(=O)CNC(=O)CNC(=O)[C@H](CS)NC(=O)[C@H](CCCNC(=N)N)NC(=O)CNC(=O)[C@H](CC(N)=O)NC(=O)[C@@H](N)CS)C(=O)N[C@@H](CO)C(=O)N[C@@H](CCCCN)C(=O)N[C@@H](CC(C)C)C(=O)N[C@@H](Cc1ccccc1)C(=O)O [TU1:MTD] (H-CNGRCGGKLLNLISKLF-OH),Slow,toxic,
KLLNLISKLFCRGDKGPDC (disulfide 11-19 (inferred)) [TU10:MTD],Slow,toxic,
